# Results from ChEMBL document CHEMBL4673265, “The food-grade antimicrobial xanthorrhizol targets the enoyl-ACP reductase (FabI) in Escherichia coli” (Bioorg Med Chem Lett, 2020).
# Substitutions are numbered along the chain they refer to. Calls of active or inactive are those of the source. The calls are words filed in the database; no cut-off is given here.
# Legend:
# [1] = target: T1, Enoyl-acyl-carrier protein reductase (Plasmodium falciparum) (UniProt Q965D5); test: Binding affinity to Plasmodium falciparum FabI assessed as fluorescence quenching by fluorescence spectral analysis
# T1 sequence (whole entry): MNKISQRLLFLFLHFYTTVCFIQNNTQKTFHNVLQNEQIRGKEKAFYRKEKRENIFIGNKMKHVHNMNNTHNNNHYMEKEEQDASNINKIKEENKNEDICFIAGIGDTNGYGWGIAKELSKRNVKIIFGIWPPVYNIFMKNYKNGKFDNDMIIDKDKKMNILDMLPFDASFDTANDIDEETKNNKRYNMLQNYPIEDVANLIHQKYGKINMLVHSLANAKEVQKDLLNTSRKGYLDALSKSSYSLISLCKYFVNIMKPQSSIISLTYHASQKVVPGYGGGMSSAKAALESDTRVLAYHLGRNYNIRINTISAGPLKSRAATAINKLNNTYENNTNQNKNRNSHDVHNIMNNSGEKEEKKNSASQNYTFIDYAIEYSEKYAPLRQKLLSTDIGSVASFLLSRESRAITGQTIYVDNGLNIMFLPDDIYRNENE
# [2] = tested on: T2, Enoyl-[acyl-carrier-protein] reductase [NADH] FabI (Escherichia coli K-12), P0AEK4 [G93V]; test: Binding affinity to Escherichia coli FabI G93V mutant assessed as change in entropy
# T2 sequence (whole entry): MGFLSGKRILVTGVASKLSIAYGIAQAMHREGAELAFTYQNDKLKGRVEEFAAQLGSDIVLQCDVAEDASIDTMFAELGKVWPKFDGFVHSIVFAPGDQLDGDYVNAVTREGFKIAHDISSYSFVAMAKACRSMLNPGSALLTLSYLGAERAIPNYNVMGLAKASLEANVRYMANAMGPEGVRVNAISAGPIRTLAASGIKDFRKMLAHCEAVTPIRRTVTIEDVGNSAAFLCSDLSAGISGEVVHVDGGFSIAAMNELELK
# [3] = tested on: T2, Enoyl-[acyl-carrier-protein] reductase [NADH] FabI (Escherichia coli K-12), P0AEK4 [G93V]; test: Binding affinity to Escherichia coli FabI G93V mutant assessed as binding free energy
# [4] = target: T3, Enoyl-[acyl-carrier-protein] reductase [NADH] FabI (Escherichia coli K-12) (UniProt P0AEK4); test: Binding affinity to wild type Escherichia coli FabI assessed as change in entropy
# T3 sequence (whole entry): T2 sequence (whole entry) with V93G
# Escherichia coli [5] = test: Antimicrobial activity against triclosan resistance-induced Escherichia coli W3110 assessed as absence of growth; format: functional
# [6] = tested on: T4, Enoyl-[acyl-carrier-protein] reductase [NADH] FabI (Escherichia coli K-12), P0AEK4 [Y156V]; test: Binding affinity to Escherichia coli FabI Y156V mutant assessed as binding free energy
# T4 sequence (whole entry): T2 sequence (whole entry) with V93G, Y156V
# Plasmodium falciparum = test: Binding affinity to Plasmodium falciparum FabI Y156V mutant assessed as fluorescence quenching by fluorescence spectral analysis
# Escherichia coli [7] = test: Ratio of MIC for antimicrobial activity against Escherichia coli W3110 imp4213 expressing fabI392 pCA24N fabI F204V mutant assessed as absence of growth to MIC for antimicrobial activity against Escherichia coli W3110 imp4213 expressing fabI392 mutant assessed as absence of growth; format: functional
# Escherichia coli [8] = test: Antimicrobial activity against Escherichia coli W3110 imp4213 expressing fabI392 mutant assessed as absence of growth; format: functional
# [9] = tested on: T4, Enoyl-[acyl-carrier-protein] reductase [NADH] FabI (Escherichia coli K-12), P0AEK4 [Y156V]; test: Binding affinity to Escherichia coli FabI Y156V mutant assessed as change in entropy
# Escherichia coli [10] = test: Antimicrobial activity against Escherichia coli W3110 imp4213 expressing fabI392 pCA24N mutant assessed as absence of growth; format: functional
# [11] = target: T5, Enoyl-[acyl-carrier-protein] reductase [NADH] FabI (Escherichia coli K-12, UniProt P0AEK4); test: Inhibition of Wild type Escherichia coli FabI
# T5 sequence (P0AEK4 whole entry): T2 sequence (whole entry) with V93G
# Escherichia coli [12] = test: Antimicrobial activity against Escherichia coli W3110 imp4213 expressing fabI392 pCA24N fabI F203L mutant assessed as absence of growth; format: functional
# [13] = target: T3, Enoyl-[acyl-carrier-protein] reductase [NADH] FabI (Escherichia coli K-12); test: Binding affinity to wild type Escherichia coli FabI assessed as binding free energy
# Escherichia coli [14] = test: Antimicrobial activity against Escherichia coli W3110 imp4213 expressing pCA24N mutant assessed as absence of growth; format: functional
# [15] = target: Enoyl-[acyl-carrier-protein] reductase [NADH] FabI (Escherichia coli K-12, UniProt P0AEK4, F203L); test: Inhibition of Escherichia coli FabI F203L mutant
# Sequence of Enoyl-[acyl-carrier-protein] reductase [NADH] FabI (Escherichia coli K-12, UniProt P0AEK4, F203L) (P0AEK4 2-262 F203L limits assumed): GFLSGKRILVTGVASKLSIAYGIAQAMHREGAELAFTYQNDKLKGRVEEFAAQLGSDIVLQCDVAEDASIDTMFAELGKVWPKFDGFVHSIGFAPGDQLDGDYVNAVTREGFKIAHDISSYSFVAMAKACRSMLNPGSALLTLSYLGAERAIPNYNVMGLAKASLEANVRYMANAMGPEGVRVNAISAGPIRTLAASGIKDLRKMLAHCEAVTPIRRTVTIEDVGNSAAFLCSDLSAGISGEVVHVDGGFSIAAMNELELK
# Escherichia coli [16] = test: Antimicrobial activity against Escherichia coli W3110 imp4213 expressing pCA24N-fab F204V mutant assessed as absence of growth; format: functional
# Escherichia coli [17] = test: Antibacterial activity against Escherichia coli BW25113 assessed as effect on growth rate per hour at 8 uM incubated for 24 hrs by microplate reader; format: functional
# Escherichia coli [18] = test: Ratio of MIC for antimicrobial activity against Escherichia coli W3110 imp4213 expressing fabI392 pCA24N fabI F203L mutant assessed as absence of growth to MIC for antimicrobial activity against Escherichia coli W3110 imp4213 expressing fabI392 mutant assessed as absence of growth; format: functional
# Escherichia coli [19] = test: Antimicrobial activity against Escherichia coli W3110 imp4213 expressing pCA24N-fab/ Y156V mutant assessed as absence of growth; format: functional
# [20] = target: Enoyl-[acyl-carrier-protein] reductase [NADH] FabI (Escherichia coli K-12, UniProt P0AEK4, G93V); test: Inhibition of Escherichia coli FabI G93V mutant
# Escherichia coli [21] = test: Antimicrobial activity against Escherichia coli W3110 imp4213 expressing fabI G93V mutant assessed as absence of growth; format: functional
# Escherichia coli [22] = test: Antimicrobial activity against Escherichia coli W3110 imp4213 expressing fabI392 pCA24N fabI Y156V mutant assessed as absence of growth; format: functional
# Escherichia coli [23] = test: Antimicrobial activity against Escherichia coli W3110 imp4213 assessed as absence of growth; format: functional
# Escherichia coli [24] = test: Antimicrobial activity against wild type Escherichia coli W3110 assessed as absence of growth; format: functional
# [25] = target: Enoyl-[acyl-carrier-protein] reductase [NADH] FabI (Escherichia coli K-12, UniProt P0AEK4, F203V); test: Inhibition of Escherichia coli FabI F203V mutant
# Sequence of Enoyl-[acyl-carrier-protein] reductase [NADH] FabI (Escherichia coli K-12, UniProt P0AEK4, F203V) (P0AEK4 2-262 F203V limits assumed): as the sequence (P0AEK4 2-262 F203L limits assumed) above, with L202V counted along it
# Escherichia coli [26] = test: Antimicrobial activity against Escherichia coli W3110 imp4213 expressing pCA24N-fabI mutant assessed as absence of growth; format: functional
# [27] = Drug uptake in Escherichia coli W3110 imp4213 mutant at 8 ug/ml incubated for 2 hrs (Rvb (wash control) = 1.48 +/- 1.31 pM); format: ADME; settings: dose 8 µg/ml
# [28] = Drug uptake in Escherichia coli W3110 at 8 ug/ml incubated for 2 hrs (Rvb (wash control) = 1.88 pM); format: ADME; settings: dose 8 µg/ml
# [29] = target: Enoyl-[acyl-carrier-protein] reductase [NADH] FabI (Escherichia coli K-12, UniProt P0AEK4, Y156V); test: Inhibition of Escherichia coli FabI Y156V mutant
# Sequence of Enoyl-[acyl-carrier-protein] reductase [NADH] FabI (Escherichia coli K-12, UniProt P0AEK4, Y156V) (P0AEK4 2-262 Y156V limits assumed): as the sequence (P0AEK4 2-262 F203L limits assumed) above, with Y155V, L202F counted along it
# Escherichia coli [30] = test: Antimicrobial activity against Escherichia coli W3110 imp4213 expressing fabI392 pCA24N fabI mutant assessed as absence of growth; format: functional
# Escherichia coli [31] = test: Antimicrobial activity against Escherichia coli W3110 imp4213 expressing fabI392 pCA24N fabI F204V mutant assessed as absence of growth; format: functional
# Escherichia coli [32] = test: Antimicrobial activity against Escherichia coli W3110 imp4213 expressing pCA24N-fab F203L mutant assessed as absence of growth; format: functional
smiles,measurement,setting,value
CC(C)=CCC[C@@H](C)c1ccc(C)c(O)c1 [XANTHORRIZOL],Activity,[1],inactive
same,-TdeltaS,[2],-38.7 kcal/mol
same,deltaG,[3],-15.1 kcal/mol
same,-TdeltaS,[4],-32.2 kcal/mol
same,MIC,Escherichia coli [5],0.125 µg/mL
same,deltaG,[6],-10.6 kcal/mol
same,Activity,Plasmodium falciparum,inactive
same,Ratio,Escherichia coli [7],2
same,MIC,Escherichia coli [8],2 µg/mL
same,-TdeltaS,[9],-33.2 kcal/mol
same,MIC,Escherichia coli [10],2 µg/mL
same,IC50,[11],17.1 µM
same,MIC,Escherichia coli [12],16 µg/mL
same,deltaG,[13],-15 kcal/mol
same,MIC,Escherichia coli [14],16 µg/mL
same,IC50,[15],75.7 µM
same,MIC,Escherichia coli [16],256 µg/mL
same,Activity,Escherichia coli [17],0.354
same,Ratio,Escherichia coli [18],2
same,MIC,Escherichia coli [19],128 µg/mL
same,IC50,[20],19.7 µM
same,MIC,Escherichia coli [21],16 µg/mL
same,MIC,Escherichia coli [22],16 µg/mL
same,MIC,Escherichia coli [23],16 µg/mL
same,MIC,Escherichia coli [24],0.05 µg/mL
same,IC50,[25],57.3 µM
same,MIC,Escherichia coli [26],64 µg/mL
same,Drug uptake,[27],76.65 pM
same,Drug uptake,[28],0.23 pM
same,IC50,[29],37.7 µM
same,MIC,Escherichia coli [30],8 µg/mL
same,MIC,Escherichia coli [31],16 µg/mL
same,MIC,Escherichia coli [32],256 µg/mL
